What was measured:
[1] = target: T1, Apoptosis regulator Bcl-2 (Homo sapiens, UniProt P10415); assay: Binding affinity to Bcl-2 (unknown origin) assessed as inhibition constant using 5-FAM-QEDIIRNIARHLAQVGDSMDRSIPPG as substrate
[2] = target: T2, Induced myeloid leukemia cell differentiation protein Mcl-1 (Homo sapiens, UniProt Q07820); assay: Binding affinity to Mcl-1 (unknown origin) assessed as inhibition constant using 5-FAM-QEDIIRNIARHLAQVGDSMDRSIPPG as substrate
[3] = Binding affinity to recombinant Bcl-2 V113G mutant (unknown origin) using peptide probe incubated for 2 hrs by fluorescence based assay; parameters: species or system Homo sapiens
[4] = Binding affinity to recombinant Bcl-2 D129L mutant (unknown origin) using peptide probe incubated for 2 hrs by fluorescence based assay; parameters: species or system Homo sapiens
MOLT-4 = assay: Cytotoxicity against human MOLT-4 cells assessed as cell growth inhibition incubated for 72 hrs; type: functional, cell-based; conditions: MOLT-4, 72 h
[5] = Selectivity ratio of IC50 for human platelets to IC50 for human MOLT-4 cells; type: toxicity; conditions: human platelets and human MOLT-4 cells
[6] = Cytotoxicity against human platelets assessed as cell growth inhibition incubated for 24 hrs; type: toxicity, cell-based, Platelet
[7] = target: Protein cereblon/Bcl-2-like protein 1 (Homo sapiens) (UniProt Q07817+Q96SW2); assay: PROTAC activity at CRBN/Bcl-xL in human MOLT-4 cells assessed as induction of Bcl-xL degradation at 100 nM incubated for 16 hrs by Western blot assay relative to control; type: cell-based
Protein cereblon/Bcl-2-like protein 1 (Homo sapiens), sequence (Q07817 whole entry, looked up): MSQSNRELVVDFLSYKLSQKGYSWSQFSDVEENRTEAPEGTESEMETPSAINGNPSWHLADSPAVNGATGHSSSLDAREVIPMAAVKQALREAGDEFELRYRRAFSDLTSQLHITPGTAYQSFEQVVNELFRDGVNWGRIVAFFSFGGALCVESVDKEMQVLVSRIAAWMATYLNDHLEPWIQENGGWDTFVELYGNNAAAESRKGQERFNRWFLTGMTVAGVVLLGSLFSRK
Protein cereblon/Bcl-2-like protein 1 (Homo sapiens), sequence (Q96SW2 whole entry, looked up): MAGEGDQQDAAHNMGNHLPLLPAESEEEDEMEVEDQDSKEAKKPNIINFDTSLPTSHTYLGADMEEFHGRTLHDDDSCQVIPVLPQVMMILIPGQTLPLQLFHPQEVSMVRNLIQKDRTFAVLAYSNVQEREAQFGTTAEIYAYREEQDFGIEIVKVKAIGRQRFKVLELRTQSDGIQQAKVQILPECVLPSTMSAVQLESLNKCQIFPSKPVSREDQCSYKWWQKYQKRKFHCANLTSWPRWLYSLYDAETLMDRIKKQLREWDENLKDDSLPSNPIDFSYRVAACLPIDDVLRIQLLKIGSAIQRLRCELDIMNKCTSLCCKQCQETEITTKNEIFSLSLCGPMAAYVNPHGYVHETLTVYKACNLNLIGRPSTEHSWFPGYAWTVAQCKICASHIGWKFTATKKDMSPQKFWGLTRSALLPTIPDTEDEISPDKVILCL

[8] = target: T1, Apoptosis regulator Bcl-2; assay: Binding affinity to human Bcl-2 assessed as inhibition constant incubated for 15 mins by competition fluorescence polarization assay
[9] = target: T2, Induced myeloid leukemia cell differentiation protein Mcl-1; assay: Binding affinity to human Mcl-1 assessed as inhibition constant incubated for 15 mins by competition fluorescence polarization assay
Bcl-2-like protein 1 [10] = target: T3, Bcl-2-like protein 1 (Homo sapiens, UniProt Q07817); assay: Binding affinity to human Bcl-xL assessed as inhibition constant incubated for 15 mins by competition fluorescence polarization assay
T3 sequence (Q07817 whole entry): as the sequence (Q07817 whole entry, looked up) above

[11] = target: T4, von Hippel-Lindau disease tumor suppressor/Bcl-2-like protein 1 (Homo sapiens, UniProt P40337+Q07817); assay: PROTAC activity at VHL/Bcl-xL in human MOLT-4 cells assessed as induction of Bcl-xL degradation incubated for 16 hrs by immunoblot assay; type: cell-based
T4 sequence (Q07817 whole entry): as the sequence (Q07817 whole entry, looked up) above
T4 sequence (P40337 whole entry): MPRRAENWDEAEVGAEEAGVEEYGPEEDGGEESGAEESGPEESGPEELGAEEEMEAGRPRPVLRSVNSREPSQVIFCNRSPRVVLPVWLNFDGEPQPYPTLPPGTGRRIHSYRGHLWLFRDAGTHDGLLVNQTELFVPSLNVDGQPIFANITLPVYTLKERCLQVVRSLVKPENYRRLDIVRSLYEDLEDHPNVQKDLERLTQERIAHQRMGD

[12] = target: T5, von Hippel-Lindau disease tumor suppressor/Bcl-2-like protein 1 (Homo sapiens) (UniProt Q07817+P40337); assay: PROTAC activity at VHL/Bcl-xL in human MOLT-4 cells assessed as induction of Bcl-xL degradation incubated for 16 hrs by immunoblot assay relative to control; type: cell-based
T5 sequence (P40337 whole entry, looked up): as the sequence (P40337 whole entry) above
T5 sequence (Q07817 whole entry, looked up): as the sequence (Q07817 whole entry, looked up) above

[13] = target: T4, von Hippel-Lindau disease tumor suppressor/Bcl-2-like protein 1; assay: PROTAC activity at VHL/Bcl-xL in human THP-1 cells assessed as induction of Bcl-xL degradation incubated for 24 hrs by Western blot assay; type: cell-based
[14] = target: T5, von Hippel-Lindau disease tumor suppressor/Bcl-2-like protein 1 (Homo sapiens); assay: PROTAC activity at VHL/Bcl-xL in human THP-1 cells assessed as induction of Bcl-xL degradation incubated for 24 hrs by Western blot assay relative to control; type: cell-based
[15] = target: T1, Apoptosis regulator Bcl-2; assay: Displacement of synthetic peptide tracer conjugated to fluorescein isothiocyanate from C-terminal 6xHis-tagged Bcl-2 (1 to 204 residues) (unknown origin) preincubated for 1 hr followed by tracer addition measured after 20 mins by fluorescence polarization assay
Bcl-2-like protein 1 [16] = target: T3, Bcl-2-like protein 1; assay: Displacement of synthetic peptide tracer conjugated to fluorescein isothiocyanate from C-terminal 6xHis-tagged Bcl-xL (1 to 209 residues) (unknown origin) preincubated for 1 hr followed by tracer addition measured after 20 mins by fluorescence polarization assay
[17] = Solubility of the compound in aqueous buffer at physiological pH; type: physicochemical
Bcl-2-like protein 1 [18] = target: T3, Bcl-2-like protein 1; assay: Binding affinity to Bcl-xL (unknown origin) assessed as inhibition constant by fluorescence polarization assay
Bcl-2-like protein 1 [19] = target: T3, Bcl-2-like protein 1; assay: Binding affinity to Bcl-xL (unknown origin) assessed as inhibition constant
[20] = target: T1, Apoptosis regulator Bcl-2; assay: Binding affinity to Bcl-2 (unknown origin) assessed as inhibition constant

T1 sequence (P10415 whole entry): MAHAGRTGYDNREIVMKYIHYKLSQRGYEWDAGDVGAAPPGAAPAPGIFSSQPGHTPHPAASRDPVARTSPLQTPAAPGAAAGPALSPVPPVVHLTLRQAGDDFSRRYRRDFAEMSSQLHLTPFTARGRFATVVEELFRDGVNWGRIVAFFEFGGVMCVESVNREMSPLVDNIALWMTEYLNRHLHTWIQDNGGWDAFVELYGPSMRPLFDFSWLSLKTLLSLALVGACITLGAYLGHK
T2 sequence (Q07820 whole entry): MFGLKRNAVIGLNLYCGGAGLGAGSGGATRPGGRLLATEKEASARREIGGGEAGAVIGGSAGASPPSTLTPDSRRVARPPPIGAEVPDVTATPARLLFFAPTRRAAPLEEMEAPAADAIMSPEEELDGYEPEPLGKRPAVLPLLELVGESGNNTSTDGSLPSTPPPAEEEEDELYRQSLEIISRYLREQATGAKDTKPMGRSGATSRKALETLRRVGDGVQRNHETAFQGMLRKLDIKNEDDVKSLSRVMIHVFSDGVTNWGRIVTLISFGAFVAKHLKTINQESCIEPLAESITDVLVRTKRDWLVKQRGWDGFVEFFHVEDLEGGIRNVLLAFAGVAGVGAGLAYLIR

Work on `N#Cc1ccc(CN2Cc3c(cc(Br)c(OCc4ccc(-c5ccccc5)cc4)c3Br)C[C@H]2C(=O)NS(=O)(=O)c2ccc(Cl)c([N+](=O)[O-])c2)cc1` yielded a Ki [1] of 0.45 nM and a Ki [2] of 0.35 nM.
With `Cc1c(N(C(=O)c2cc(-c3cc(Cl)ccc3C(=O)N3Cc4ccccc4C[C@H]3CN3CCOCC3)n(C)c2C)c2ccc(O)cc2)cc(C#N)n1C` [VOB-560] the Ki [3] was 9.6 nM and the Ki [4] was 1 nM.
`O=C1CCC(N2C(=O)c3cccc(NCCOCCOCc4cn(CCCC(=O)N5CCN(CC#Cc6ccc(OCCCc7sc(N8CCc9cccc(C(=O)Nc%10nc%11ccccc%11s%10)c9C8)nc7C(=O)O)c(F)c6)CC5)nn4)c3C2=O)C(=O)N1` (stereo not drawn) showed an IC50 (MOLT-4) of 51 nM, a selectivity ratio [5] of 22 and an IC50 at 24 h [6] of 1140 nM. For the same compound, the Emax [7] was 85%.
With `CCN(CC)C[C@@H](O)CNc1ccc(NC[C@H]2CO2)c2c1C(=O)c1ccccc1C2=O` the Ki [8] was 3.3 nM, the Ki [9] was over 550 nM and the Ki (Bcl-2-like protein 1 [10]) was over 500 nM.
`Cc1ncsc1-c1ccc([C@H](C)NC(=O)[C@@H]2C[C@@H](O)CN2C(=O)[C@@H](NC(=O)CCCCCC(=O)N2CCN(CC[C@H](CSc3ccccc3)Nc3ccc(S(=O)(=O)NC(=O)c4ccc(N5CCN(CC6=C(c7ccc(Cl)cc7)CCC(C)(C)C6)CC5)cc4)cc3S(=O)(=O)C(F)(F)F)CC2)C(C)(C)C)cc1` [DT-2216] showed an EC50 [11] of 63 nM and an Emax [12] of 90.8%.
Compound `Cc1ncsc1-c1ccc(CNC(=O)[C@@H]2C[C@@H](O)CN2C(=O)[C@@H](NC(=O)CCOCCOCCOCCOCCOCCOCC#Cc2ccc(OCCCc3sc(N4CCc5cccc(C(=O)Nc6nc7ccccc7s6)c5C4)nc3C(=O)O)cc2)C(C)(C)C)cc1` has an EC50 [13] of 4.8 nM and an Emax [14] of 76%.
`CN(CCO)CC[C@H](CSc1ccccc1)Nc1ccc(S(=O)(=O)NC(=O)c2ccc(N3CCC([C@@H](O)c4ccccc4-c4ccc(Cl)cc4)CC3)cc2)cc1S(=O)(=O)C(F)(F)F` showed an IC50 [15] of 3.9 nM, an IC50 (Bcl-2-like protein 1 [16]) of 4.5 nM and a solubility [17] of under 1 µg/mL.
`CN(C)CC#Cc1ccc(OCCCc2sc(N3CCc4cccc(C(=O)Nc5nc6ccccc6s5)c4C3)nc2C(=O)O)c(F)c1` [A-1155463] gave an IC50 (MOLT-4) of 6.2 nM and an IC50 at 24 h [6] of 7.1 nM.
With `Cc1c(S(C)(=O)=O)c(-c2cc(F)cc(N3CCN(c4ccc(NS(=O)(=O)c5ccc(N[C@H](CCN6CCC(O)CC6)CSc6ccccc6)c(S(=O)(=O)C(F)(F)F)c5)cc4)CC3)c2)c(-c2ccc(Cl)cc2)n1C(C)C` the Ki (Bcl-2-like protein 1 [18]) was under 1 nM.
In the case of `Cc1c(S(C)(=O)=O)c(-c2cc(F)cc(N3CCN(c4ccc(NS(=O)(=O)c5ccc(N[C@H](CCN6CCC(C(=O)OCCCP(=O)(O)O)CC6)CSc6ccccc6)c(S(=O)(=O)C(F)(F)F)c5)cc4)CC3)c2)c(-c2ccc(Cl)cc2)n1C(C)C` [PELCITOCLAX], the Ki (Bcl-2-like protein 1 [19]) is reported as under 1 nM and the Ki [20] is reported as under 1 nM.

Reference: ChEMBL document CHEMBL5107957, “Trends in targeting Bcl-2 anti-apoptotic proteins for cancer treatment” (Eur J Med Chem, 2022)
